The values that follow are results of earlier work, collected in patent US20260216106A1, “DOSAGE FORM FOR INTRA-ARTICULAR INJECTION […] USE IN THE TREATMENT OF A JOINT DISEASE SUCH AS OSTEOARTHRITIS” (priority 2023, published 2026).

For this series the following is noted: literature (Niel et al 2006).

With `COc1cc2c(c(OC)c1OC)-c1ccc(OC)c(=O)cc1[C@@H](NC(C)=O)CC2` [colchicine, N-[(7S)-1,2,3,10-tetramethoxy-9-oxo-6,7-dihydro-5H-benzo[a]heptalen-7-yl]acetamide], the lethal dose is recorded as 0.8 mg/kg and the toxicity limit dose was 0.1 mg/kg.
